# From paper PMC9950205, “Efficacy, safety, and pharmacokinetics of teduglutide in adult Japanese patients with short bowel syndrome and intestinal failure: two phase III studies with an extension” (Surgery Today, 2022)
# System: adult Japanese patients with SBS-IF
# Assay: Safety: treatment-emergent adverse events (TEAEs, TESAEs)
# Assay type: in vivo
# Source text: Safety analyses included the monitoring of adverse events (AEs), body weight, BMI, vital signs, 12-lead electrocardiogram (ECG), serum biochemistry, hematology, and presence of antibodies to teduglutide. AEs were coded using the Medical Dictionary for Regulatory Activities versions 17.1 (TED-C14-004) and 21.0 (SHP633-306 and SHP633-307). Specifically, AEs were treatment-emergent AEs (TEAEs), defined as any unfavorable and unintended sign (including any abnormal laboratory finding), symptom, or disease that occurred during treatment with teduglutide, whether or not the event was considered to be related to the study drug by the clinical study investigator. AEs were also categorized as mild, moderate, or severe. […] AEs were considered related to treatment with teduglutide, or its administration, based on the investigator's medical judgment.
# [1] = > 24 weeks (SHP633-307 and TED-C14-004), 0.05 mg/kg/day
structure (smiles),measurement,setting,value
CC[C@H](C)[C@H](NC(=O)[C@H](Cc1ccccc1)NC(=O)[C@H](CC(=O)O)NC(=O)[C@H](CCCNC(=N)N)NC(=O)[C@H](C)NC(=O)[C@H](C)NC(=O)[C@H](CC(C)C)NC(=O)[C@H](CC(N)=O)NC(=O)[C@H](CC(=O)O)NC(=O)[C@H](CC(C)C)NC(=O)[C@@H](NC(=O)[C@@H](NC(=O)[C@H](CC(N)=O)NC(=O)[C@H](CCSC)NC(=O)[C@H](CCC(=O)O)NC(=O)[C@H](CC(=O)O)NC(=O)[C@H](CO)NC(=O)[C@H](Cc1ccccc1)NC(=O)[C@H](CO)NC(=O)CNC(=O)[C@H](CC(=O)O)NC(=O)CNC(=O)[C@@H](N)Cc1c[nH]cn1)[C@@H](C)O)[C@@H](C)CC)C(=O)N[C@@H](CC(N)=O)C(=O)N[C@@H](Cc1c[nH]c2ccccc12)C(=O)N[C@@H](CC(C)C)C(=O)N[C@H](C(=O)N[C@@H](CCC(N)=O)C(=O)N[C@H](C(=O)N[C@@H](CCCCN)C(=O)N[C@H](C(=O)N[C@H](C(=O)N[C@@H](CC(=O)O)C(=O)O)[C@@H](C)O)[C@@H](C)CC)[C@@H](C)O)[C@@H](C)CC [teduglutide],Abdominal distension: Events,[1],2 n
same,Abdominal distension: Patients,[1],2 (13.3) n (%)
same,Abdominal pain: Events,[1],1 n
same,Abdominal pain: Patients,[1],1 (6.7) n (%)
same,Anal abscess: Events,[1],3 n
same,Anal abscess: Patients,[1],3 (20.0) n (%)
same,Anemia: Events,[1],0 n
same,Anemia: Patients,[1],0 n (%)
same,Any TEAE: Events,[1],199 n
same,Any TEAE: Patients,[1],11 (73.3) n (%)
same,Arthralgia: Events,[1],5 n
same,Arthralgia: Patients,[1],5 (33.3) n (%)
same,Back pain: Events,[1],1 n
same,Back pain: Patients,[1],1 (6.7) n (%)
same,Blood and lymphatic system disorders: Events,[1],0 n
same,Blood and lymphatic system disorders: Patients,[1],0 n (%)
same,Catheter site infection: Events,[1],1 n
same,Catheter site infection: Patients,[1],1 (6.7) n (%)
same,Catheter site pain: Events,[1],4 n
same,Catheter site pain: Patients,[1],2 (13.3) n (%)
same,Dehydration: Events,[1],2 n
same,Dehydration: Patients,[1],2 (13.3) n (%)
same,Dermatitis contact: Events,[1],4 n
same,Dermatitis contact: Patients,[1],4 (26.7) n (%)
same,Device occlusion (central venous catheter for PS): Events,[1],3 n
same,Device occlusion (central venous catheter for PS): Patients,[1],2 (13.3) n (%)
same,Device-related infection (central venous catheter for PS): Events,[1],24 n
same,Device-related infection (central venous catheter for PS): Patients,[1],7 (46.7) n (%)
same,Diarrhea: Events,[1],4 n
same,Diarrhea: Patients,[1],3 (20.0) n (%)
same,Dry skin: Events,[1],1 n
same,Dry skin: Patients,[1],1 (6.7) n (%)
same,Enteritis: Events,[1],1 n
same,Enteritis: Patients,[1],1 (6.7) n (%)
same,Enterocolitis: Events,[1],2 n
same,Enterocolitis: Patients,[1],2 (13.3) n (%)
same,Eye disorder: Events,[1],5 n
same,Eye disorder: Patients,[1],1 (6.7) n (%)
same,Gastrointestinal disorders: Events,[1],33 n
same,Gastrointestinal disorders: Patients,[1],8 (53.3) n (%)
same,General disorders and administration site conditions: Events,[1],16 n
same,General disorders and administration site conditions: Patients,[1],5 (33.3) n (%)
same,Headache: Events,[1],11 n
same,Headache: Patients,[1],5 (33.3) n (%)
same,Hematuria: Events,[1],2 n
same,Hematuria: Patients,[1],2 (13.3) n (%)
same,Hemorrhage subcutaneous: Events,[1],2 n
same,Hemorrhage subcutaneous: Patients,[1],2 (13.3) n (%)
same,Hepatobiliary disorders: Events,[1],2 n
same,Hepatobiliary disorders: Patients,[1],2 (13.3) n (%)
same,Hypersensitivity: Events,[1],2 n
same,Hypersensitivity: Patients,[1],2 (13.3) n (%)
same,Hypozincemia: Events,[1],1 n
same,Hypozincemia: Patients,[1],1 (6.7) n (%)
same,Immune system disorders: Events,[1],2 n
same,Immune system disorders: Patients,[1],2 (13.3) n (%)
same,Infections and infestations: Events,[1],62 n
same,Infections and infestations: Patients,[1],10 (66.7) n (%)
same,Influenza: Events,[1],18 n
same,Influenza: Patients,[1],5 (33.3) n (%)
same,Injection site reaction: Events,[1],0 n
same,Injection site reaction: Patients,[1],0 n (%)
same,"Injury, poisoning, and procedural complications: Events",[1],1 n
same,"Injury, poisoning, and procedural complications: Patients",[1],1 (6.7) n (%)
same,Insomnia: Events,[1],2 n
same,Insomnia: Patients,[1],2 (13.3) n (%)
same,Investigations: Events,[1],5 n
same,Investigations: Patients,[1],2 (13.3) n (%)
same,Metabolism and nutrition disorders: Events,[1],7 n
same,Metabolism and nutrition disorders: Patients,[1],5 (33.3) n (%)
same,Musculoskeletal and connective tissue disorders: Events,[1],10 n
same,Musculoskeletal and connective tissue disorders: Patients,[1],6 (40.0) n (%)
same,Nasopharyngitis: Events,[1],18 n
same,Nasopharyngitis: Patients,[1],5 (33.3) n (%)
same,Nausea: Events,[1],7 n
same,Nausea: Patients,[1],3 (20.0) n (%)
same,Nervous system disorders: Events,[1],19 n
same,Nervous system disorders: Patients,[1],7 (46.7) n (%)
same,Oropharyngeal pain: Events,[1],3 n
same,Oropharyngeal pain: Patients,[1],3 (20.0) n (%)
same,Pruritus: Events,[1],1 n
same,Pruritus: Patients,[1],1 (6.7) n (%)
same,Psychiatric disorders: Events,[1],4 n
same,Psychiatric disorders: Patients,[1],3 (20.0) n (%)
same,Pyrexia: Events,[1],5 n
same,Pyrexia: Patients,[1],4 (26.7) n (%)
same,Renal and urinary disorders: Events,[1],4 n
same,Renal and urinary disorders: Patients,[1],3 (20.0) n (%)
same,"Respiratory, thoracic, and mediastinal disorders: Events",[1],8 n
same,"Respiratory, thoracic, and mediastinal disorders: Patients",[1],3 (20.0) n (%)
same,Skin and subcutaneous tissue disorders: Events,[1],13 n
same,Skin and subcutaneous tissue disorders: Patients,[1],7 (46.7) n (%)
same,Somnolence: Events,[1],3 n
same,Somnolence: Patients,[1],3 (20.0) n (%)
same,Stomatitis: Events,[1],3 n
same,Stomatitis: Patients,[1],3 (20.0) n (%)
same,Upper respiratory tract inflammation: Events,[1],1 n
same,Upper respiratory tract inflammation: Patients,[1],1 (6.7) n (%)
same,Vascular disorders: Events,[1],4 n
same,Vascular disorders: Patients,[1],3 (20.0) n (%)
same,Vascular pain: Events,[1],3 n
same,Vascular pain: Patients,[1],2 (13.3) n (%)
same,Vomiting: Events,[1],1 n
same,Vomiting: Patients,[1],1 (6.7) n (%)
same,TESAEs considered to be related to teduglutide,SHP633-306 or SHP633-307,No TESAEs
same,Deaths during the study,"TED-C14-004, one patient, acute hepatic and renal failure 52 days after teduglutide discontinuation",only death
same,Abdominal distension: Events,"Total, 0.05 mg/kg/day",6 n
same,Abdominal distension: Patients,"Total, 0.05 mg/kg/day",6 (33.3) n (%)
same,Abdominal pain: Events,"Total, 0.05 mg/kg/day",6 n
same,Abdominal pain: Patients,"Total, 0.05 mg/kg/day",5 (27.8) n (%)
same,Anal abscess: Events,"Total, 0.05 mg/kg/day",3 n
same,Anal abscess: Patients,"Total, 0.05 mg/kg/day",3 (16.7) n (%)
same,Anemia: Events,"Total, 0.05 mg/kg/day",2 n
same,Anemia: Patients,"Total, 0.05 mg/kg/day",2 (11.1) n (%)
same,Any TEAE: Events,"Total, 0.05 mg/kg/day",320 n
same,Any TEAE: Patients,"Total, 0.05 mg/kg/day",18 (100.0) n (%)
same,Arthralgia: Events,"Total, 0.05 mg/kg/day",5 n
same,Arthralgia: Patients,"Total, 0.05 mg/kg/day",5 (27.8) n (%)
same,Back pain: Events,"Total, 0.05 mg/kg/day",2 n
same,Back pain: Patients,"Total, 0.05 mg/kg/day",2 (11.1) n (%)
same,Blood and lymphatic system disorders: Events,"Total, 0.05 mg/kg/day",4 n
same,Blood and lymphatic system disorders: Patients,"Total, 0.05 mg/kg/day",3 (16.7) n (%)
same,Catheter site infection: Events,"Total, 0.05 mg/kg/day",2 n
same,Catheter site infection: Patients,"Total, 0.05 mg/kg/day",2 (11.1) n (%)
same,Catheter site pain: Events,"Total, 0.05 mg/kg/day",5 n
same,Catheter site pain: Patients,"Total, 0.05 mg/kg/day",2 (11.1) n (%)
same,Dehydration: Events,"Total, 0.05 mg/kg/day",4 n
same,Dehydration: Patients,"Total, 0.05 mg/kg/day",2 (11.1) n (%)
same,Dermatitis contact: Events,"Total, 0.05 mg/kg/day",4 n
same,Dermatitis contact: Patients,"Total, 0.05 mg/kg/day",4 (22.2) n (%)
same,Device occlusion (central venous catheter for PS): Events,"Total, 0.05 mg/kg/day",6 n
same,Device occlusion (central venous catheter for PS): Patients,"Total, 0.05 mg/kg/day",3 (16.7) n (%)
same,Device-related infection (central venous catheter for PS): Events,"Total, 0.05 mg/kg/day",33 n
same,Device-related infection (central venous catheter for PS): Patients,"Total, 0.05 mg/kg/day",10 (55.6) n (%)
same,Diarrhea: Events,"Total, 0.05 mg/kg/day",5 n
same,Diarrhea: Patients,"Total, 0.05 mg/kg/day",4 (22.2) n (%)
same,Dry skin: Events,"Total, 0.05 mg/kg/day",2 n
same,Dry skin: Patients,"Total, 0.05 mg/kg/day",2 (11.1) n (%)
same,Enteritis: Events,"Total, 0.05 mg/kg/day",2 n
same,Enteritis: Patients,"Total, 0.05 mg/kg/day",2 (11.1) n (%)
same,Enterocolitis: Events,"Total, 0.05 mg/kg/day",4 n
same,Enterocolitis: Patients,"Total, 0.05 mg/kg/day",3 (16.7) n (%)
same,Eye disorder: Events,"Total, 0.05 mg/kg/day",7 n
same,Eye disorder: Patients,"Total, 0.05 mg/kg/day",3 (16.7) n (%)
same,Gastrointestinal disorders: Events,"Total, 0.05 mg/kg/day",60 n
same,Gastrointestinal disorders: Patients,"Total, 0.05 mg/kg/day",15 (83.3) n (%)
same,General disorders and administration site conditions: Events,"Total, 0.05 mg/kg/day",37 n
same,General disorders and administration site conditions: Patients,"Total, 0.05 mg/kg/day",10 (55.6) n (%)
same,Headache: Events,"Total, 0.05 mg/kg/day",14 n
same,Headache: Patients,"Total, 0.05 mg/kg/day",7 (38.9) n (%)
same,Hematuria: Events,"Total, 0.05 mg/kg/day",3 n
same,Hematuria: Patients,"Total, 0.05 mg/kg/day",3 (16.7) n (%)
same,Hemorrhage subcutaneous: Events,"Total, 0.05 mg/kg/day",3 n
same,Hemorrhage subcutaneous: Patients,"Total, 0.05 mg/kg/day",2 (11.1) n (%)
same,Hepatobiliary disorders: Events,"Total, 0.05 mg/kg/day",5 n
same,Hepatobiliary disorders: Patients,"Total, 0.05 mg/kg/day",4 (22.2) n (%)
same,Hypersensitivity: Events,"Total, 0.05 mg/kg/day",2 n
same,Hypersensitivity: Patients,"Total, 0.05 mg/kg/day",2 (11.1) n (%)
same,Hypozincemia: Events,"Total, 0.05 mg/kg/day",2 n
same,Hypozincemia: Patients,"Total, 0.05 mg/kg/day",2 (11.1) n (%)
